Source: article PMC11617094 (Molecular Biology of the Cell, 2024)
Substitutions are numbered along the chain they refer to. Names may count otherwise. Blank lines part the entries; values can stand above or below the molecule they belong to.

How the values were obtained:
[1] = target: T1, Alp7A (Bacillus subtilis, UniProt C7F6X5); test: EnzChek phosphate release (ATPase on polymerization); assay type: biochemical; settings: 10 mM ATP/Mg, 25 mM Tris pH 7.5, 100 mM KCl, 1 mM MgCl2, 1 mM DTT; no Alp7R
T1 construct: untagged native Alp7A encoded by plasmid pLS20, codon-optimised gene in pET28a (NcoI/HindIII), expressed in E. coli C43, purified by a polymerization cycle and gel filtration; forms two-stranded filaments
T1 sequence (C7F6X5 1-391): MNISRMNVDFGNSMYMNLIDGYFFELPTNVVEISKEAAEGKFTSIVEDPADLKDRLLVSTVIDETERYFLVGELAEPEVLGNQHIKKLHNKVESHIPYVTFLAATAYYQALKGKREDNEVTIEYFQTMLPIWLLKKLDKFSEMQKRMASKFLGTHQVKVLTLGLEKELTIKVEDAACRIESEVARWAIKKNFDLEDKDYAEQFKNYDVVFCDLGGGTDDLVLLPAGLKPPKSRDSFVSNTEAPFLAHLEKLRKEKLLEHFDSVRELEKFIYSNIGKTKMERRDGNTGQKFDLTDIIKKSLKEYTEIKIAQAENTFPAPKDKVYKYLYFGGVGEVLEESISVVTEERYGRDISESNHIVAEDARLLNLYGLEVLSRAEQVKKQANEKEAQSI

[2] = target: T2, Alp7A (Bacillus subtilis, UniProt C7F6X5, E180A); test: right-angle light scattering of ATP-induced polymerization; phosphate release; settings: Mg-ATP 3 mM (polymerization) or 10 mM (phosphate release), 25 mM Tris pH 7.5, 100 mM KCl, 1 mM MgCl2, 1 mM DTT; nucleotide-binding pocket mutant
T2 construct: untagged native Alp7A encoded by plasmid pLS20, codon-optimised gene in pET28a (NcoI/HindIII), expressed in E. coli C43, purified by a polymerization cycle and gel filtration; forms two-stranded filaments
T2 sequence (C7F6X5 entry or part of it E180A): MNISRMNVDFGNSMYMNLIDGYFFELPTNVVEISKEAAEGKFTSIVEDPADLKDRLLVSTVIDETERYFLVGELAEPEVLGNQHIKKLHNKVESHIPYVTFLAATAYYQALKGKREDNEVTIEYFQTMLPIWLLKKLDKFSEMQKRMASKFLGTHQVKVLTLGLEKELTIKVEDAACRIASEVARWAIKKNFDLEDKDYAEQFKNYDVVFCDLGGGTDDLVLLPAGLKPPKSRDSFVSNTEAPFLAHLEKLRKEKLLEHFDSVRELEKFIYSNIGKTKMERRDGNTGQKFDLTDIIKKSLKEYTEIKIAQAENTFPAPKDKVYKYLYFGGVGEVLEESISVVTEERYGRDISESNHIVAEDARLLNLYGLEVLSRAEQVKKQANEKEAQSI

[3] = target: Alp7A (wild type, native, unlabelled) (Bacillus subtilis (plasmid pLS20)) (UniProt C7F6X5)
[4] = target: the molecule itself; test: negative-stain electron microscopy; polymers formed with 3 mM ATP/Mg++, adsorbed to carbon-coated grids, 0.75% uranyl formate; buffer as for light scattering

Molecule: Nc1ncnc2c1ncn2[C@@H]1O[C@H](COP(=O)(O)OP(=O)(O)OP(=O)(O)O)[C@@H](O)[C@H]1O [ATP]
EnzChek phosphate release (ATPase on polymerization) [1]: phosphate dissociates rapidly from wild-type Alp7A polymers | right-angle light scattering of ATP-induced polymerization; phosphate release [2]: addition of Mg-ATP to purified Alp7A-E180A induces formation of stable polymers

concentration threshold of the specific ATPase activity (steady-state phosphate release) of Alp7A, taken as the critical concentration for elongation (ccE) [3]: 0.6 µM
Molecule: Alp7A (wild type, native, unlabelled) (from UniProt C7F6X5 1-391) (natural protein)

B1: Alp7A-E180A (hydrolysis-dead mutant, unlabelled) (natural protein, Bacillus subtilis (plasmid pLS20), UniProt C7F6X5 1-391, looked up)
chain: T1 sequence (C7F6X5 1-391) with E180A
binding result [4]: binds
